Patent publication US11603349B2, “Anti-fibrotic compounds” (Certa Therapeutics Pty Ltd, priority 2017, dated 2023)
Counter-ions that a name gives are not always drawn.

Experiments:
[1] = MTS tetrazolium reduction cell viability assay; conditions: rat, rat mesangial cells (1097/IRMC cells), TGF-β1 stimulated, CC50 (μM), vs 1% DMSO vehicle
[2] = test system: TGF-β induced [14C]-proline incorporation in rat mesangial cells; experiment: [14C]-proline incorporation assay (collagen biosynthesis); format: cell-based; conditions: Rattus norvegicus, Mesangial cell, 44 h, inhibition of TGF-β1 (1 ng/ml) induced [14C]-proline incorporation, IRMC cells

SMILES	IC50 [2] [µM]	CC50 at 48 h [1] [µM]
CN1CCOc2cc(/C=C/C(=O)Nc3ccccc3C(=O)O)ccc21 [Example 110, (E)-2-(3-(4-methyl-3,4-dihydro-2H-benzo[b][1,4]oxazin-7-yl)acrylamido)benzoic acid]	13.9	> 300
O=C(/C=C/c1ccc2c(c1)NC(=O)CO2)Nc1ccccc1C(=O)O [Example 111, (E)-2-(3-(3-oxo-3,4-dihydro-2H-benzo[b][1,4]oxazin-6-yl)acrylamido)benzoic acid]	30	> 300
CN1C(=O)COc2ccc(/C=C/C(=O)Nc3ccccc3C(=O)O)cc21 [Example 112, (E)-2-(3-(4-methyl-3-oxo-3,4-dihydro-2H-benzo[b][1,4]oxazin-6-yl)acrylamido)benzoic acid]	13	> 300
C#CCOc1ccc(/C=C/C(=O)N2CCOc3ccccc32)cc1CC [Example 113, (E)-1-(2H-benzo[b][1,4]oxazin-4(3H)-yl)-3-(3-ethyl-4-(prop-2-yn-1-yloxy)phenyl)prop-2-en-1-one]	7.75	32.6
C#CCOc1ccc(/C=C/C(=O)Nc2ccccc2-n2cnc(C)n2)cc1CC [Example 114, (E)-3-(3-ethyl-4-(prop-2-yn-1-yloxy)phenyl)-N-(2-(3-methyl-1H-1,2,4-triazol-1-yl)phenyl)-acrylamide]	14.3	82
COc1ccc(/C=C/C(=O)N2CCOc3ccccc32)c(OCCN(C)C)c1OC [Example 115, (E)-1-(2H-benzo[b][1,4]oxazin-4(3H)-yl)-3-(2-(2-(dimethylamino)ethoxy)-3,4-dimethoxyphenyl)-prop-2-en-1-one]	7.03	45.4
COc1ccc(/C=C/C(=O)Nc2cc(Cl)ccc2C(=O)O)c(OCCN(C)C)c1OC [Example 117, (E)-4-chloro-2-(3-(2-(2-(dimethylamino)ethoxy)-3,4-dimethoxyphenyl)acrylamido)benzoic Acid]	21.4	> 300
COc1cc(/C=C/C(=O)N2CCOc3ccccc32)ccc1OC1CCN(C)C1 (stereo not drawn) [Example 118, (E)-1-(2H-benzo[b][1,4]oxazin-4(3H)-yl)-3-(3-methoxy-4-((1-methylpyrrolidin-3-yl)oxy)phenyl)prop-2-en-1-one]	14.3	25.5
C#CCOc1ccc(C2CC2C(=O)N2CCOc3ccccc32)cc1OC (stereo not drawn) [Example 119, (2H-benzo[b][1,4]oxazin-4(3H)-yl)(2-(3-methoxy-4-(prop-2-yn-1-yloxy)phenyl)cyclopropyl) methanone]	24.7	74.8
COc1ccc(C2CC2C(=O)Nc2ccc(F)cc2)c(OCCN(C)C)c1OC (stereo not drawn) [Example 122, 2-(2-(2-(dimethylamino)ethoxy)-3,4-dimethoxyphenyl)-N-(4-fluorophenyl)cyclopropane-1-carboxamide]	17.2	234
C#CCOc1ccc(/C=C/C(=O)Nc2ccccc2F)cc1CC [Example 123, (E)-3-(3-ethyl-4-(prop-2-yn-1-yloxy)phenyl)-N-(2-fluorophenyl)acrylamide]	19.3	> 300
C#CCOc1ccc(/C=C/C(=O)Nc2ccc(C#N)cc2)cc1CC [Example 124, (E)-N-(4-cyanophenyl)-3-(3-ethyl-4-(prop-2-yn-1-yloxy)phenyl)acrylamide]	34.8	> 300
C#CCOc1ccc(/C=C/C(=O)Nc2ccc(F)cc2)cc1CC [Example 125, (E)-3-(3-ethyl-4-(prop-2-yn-1-yloxy)phenyl)-N-(4-fluorophenyl)acrylamide]	17.6	> 300
C#CCOc1ccc(/C=C/C(=O)n2nc(O)c3ccccc32)cc1CC [Example 126, (E)-3-(3-ethyl-4-(prop-2-yn-1-yloxy)phenyl)-1-(3-hydroxy-1H-indazol-1-yl)prop-2-en-1-one]	3.81	> 27.5
COc1ccc(/C=C/C(=O)Nc2ccccc2F)c(OCCN(C)C)c1OC [Example 127, (E)-3-(2-(2-(dimethylamino)ethoxy)-3,4-dimethoxyphenyl)-N-(2-fluorophenyl)acrylamide]	35.4	82.9
COc1ccc(/C=C/C(=O)Nc2ccc(F)cc2)c(OCCN(C)C)c1OC [Example 128, (E)-3-(2-(2-(dimethylamino)ethoxy)-3,4-dimethoxyphenyl)-N-(4-fluorophenyl)acrylamide trifluoroacetic acid salt]	11.5	24.4
COc1ccc(/C=C/C(=O)Nc2ccc(C#N)cc2)c(OCCN(C)C)c1OC [Example 129, (E)-N-(4-cyanophenyl)-3-(2-(2-(dimethylamino)ethoxy)-3,4-dimethoxyphenyl)acrylamide trifluoroacetic acid salt]	12.3	28.9
COc1cc(/C=C/C(=O)Nc2ccccc2F)ccc1OC1CCN(C)C1 (stereo not drawn) [Example 130, (E)-N-(2-fluorophenyl)-3-(3-methoxy-4-((1-methylpyrrolidin-3-yl)oxy)phenyl)acrylamide]	15.6	51.8
COc1cc(/C=C/C(=O)Nc2ccc(C#N)cc2)ccc1OC1CCN(C)C1 (stereo not drawn) [Example 131, (E)-N-(4-cyanophenyl)-3-(3-methoxy-4-((1-methylpyrrolidin-3-yl)oxy)phenyl)acrylamide trifluoroacetic acid salt]	21.6	17.7
COc1cc(/C=C/C(=O)Nc2ccc(F)cc2)ccc1OC1CCN(C)C1 (stereo not drawn) [Example 132, (E)-N-(4-fluorophenyl)-3-(3-methoxy-4-((1-methylpyrrolidin-3-yl)oxy)phenyl)actylamide trifluoroacetic acid salt]	12	16.6
C#CCOc1ccc(C2CC2C(=O)Nc2ccc(F)cc2)cc1OC (stereo not drawn) [Example 133, N-(4-fluorophenyl)-2-(3-methoxy-4-(prop-2-yn-1-yloxy)phenyl)cyclopropanecarboxamide]	23.4	> 300
C#CCOc1ccc(C2CC2C(=O)n2nc(O)c3ccccc32)cc1OC (stereo not drawn) [Example 134, (3-hydroxy-1H-indazol-1-yl)(2-(3-methoxy-4-(prop-2-yn-1-yloxy)phenyl)cyclopropyl)methanone]	17.5	> 300
C#CCOc1ccc(C2CC2C(=O)Nc2ccc(C#N)cc2)cc1OC (stereo not drawn) [Example 135, N-(4-cyanophenyl)-2-(3-methoxy-4-(prop-2-yn-1-yloxy)phenyl)cyclopropanecarboxamide]	45.3	> 300

The next lines start with results.

IC50 [2] [µM]	SMILES	CC50 at 48 h [1] [µM]
4.13	COc1cc(C2CC2C(=O)Nc2ccc(F)cc2)ccc1OC1CCN(C)C1 (stereo not drawn) [Example 136, N-(4-fluorophenyl)-2-(3-methoxy-4-((1-methylpyrrolidin-3-yl)oxy)phenyl)cyclopropane-1-carboxamide]	16.3
15.4	COc1cc(C2CC2C(=O)Nc2ccc(C#N)cc2)ccc1OC1CCN(C)C1 (stereo not drawn) [Example 137, N-(4-cyanophenyl)-2-(3-methoxy-4-((1-methylpyrrolidin-3-yl)oxy)phenyl)cyclopropane-1-carboxamide]	30.8
11	COc1cc(C2CC2C(=O)Nc2ccccc2F)ccc1OC1CCN(C)C1 (stereo not drawn) [Example 138, N-(2-fluorophenyl)-2-(3-methoxy-4-((1-methylpyrrolidin-3-yl)oxy)phenyl)cyclopropane carboxamide]	50.9
39.1	COc1cc(/C=C/C(=O)Nc2cccc(Cl)c2)ccc1OCC1COC1 [Example 147, (E)-N-(3-chlorophenyl)-3-(3-methoxy-4-(oxetan-3-ylmethoxy)phenyl)acrylamide]	> 300
8.47	COc1cc(C2CC2C(=O)Nc2cccc(Cl)c2)ccc1OCC1COC1 (stereo not drawn) [Example 148, N-(3-chlorophenyl)-2-(3-methoxy-4-(oxetan-3-ylmethoxy)phenyl)cyclopropane-1-carboxamide]	77.6
8.35	COc1ccc(C2CC2C(=O)Nc2ccc(Cl)cc2)cc1OCc1cnn(C)c1 (stereo not drawn) [Example 149, N-(4-chlorophenyl)-2-(4-methoxy-3-((1-methyl-1H-pyrazol-4-yl)methoxy)phenyl)cyclopropane-1-carboxamide]	> 54.8
4.08	COc1ccc(/C=C/C(=O)Nc2cccnc2)cc1OCc1cnn(C)c1 [Example 150, (E)-3-(4-methoxy-3-((1-methyl-1H-pyrazol-4-yl)methoxy)phenyl)-N-(pyridin-3-yl)acrylamide]	> 31.6
31.6	COc1ccc(/C=C/C(=O)Nc2cccc(Cl)c2)cc1N1CCOCC1 [Example 151, (E)-N-(3-chlorophenyl)-3-(4-methoxy-3-morpholinophenyl)acrylamide]	> 300
38.2	COc1cc(/C=C/C(=O)Nc2ccccc2Cl)ccc1OCC1COC1 [Example 152, (E)-N-(2-chlorophenyl)-3-(3-methoxy-4-(oxetan-3-ylmethoxy)phenyl)acrylamide]	> 300
35.4	COc1cc(/C=C/C(=O)Nc2ccc(Cl)cc2)ccc1OCC1COC1 [Example 153, (E)-N-(4-chlorophenyl)-3-(3-methoxy-4-(oxetan-3-ylmethoxy)phenyl)acrylamide]	> 300
8.97	COc1cc(C2CC2C(=O)Nc2ccc(Cl)cc2)ccc1OCC1COC1 (stereo not drawn) [Example 154, N-(4-chlorophenyl)-2-(3-methoxy-4-(oxetan-3-ylmethoxy)phenyl)cyclopropane-1-carboxamide]	> 300
18.7	COc1cc(C2CC2C(=O)Nc2ccccc2Cl)ccc1OCC1COC1 (stereo not drawn) [Example 155, N-(2-chlorophenyl)-2-(3-methoxy-4-(oxetan-3-ylmethoxy)phenyl)cyclopropane-1-carboxamide]	196
17.8	COc1ccc(C2CC2C(=O)Nc2cccc(Cl)c2)cc1OCc1cnn(C)c1 (stereo not drawn) [Example 156, N-(3-chlorophenyl)-2-(4-methoxy-3-((1-methyl-1H-pyrazol-4-yl)methoxy)phenyl)cyclopropane-1-carboxamide]	> 100
